Reference: ChEMBL document CHEMBL4190272, “Norditerpenoids and Dinorditerpenoids from the Seeds of Podocarpus nagi as Cytotoxic Agents and Autophagy Inducers” (J Nat Prod, 2017)
pIC50: −log10 of the molar value. The source made the active and inactive calls. The rule behind the calls is not given here.

Columns and labels:
HEY [1] = experiment: Cytotoxicity against human HEY cells after 48 hrs by MTT assay; type: functional, cell-based
A2780 [2] = experiment: Induction of autophagy in human A2780 cells assessed as increase in LC3-2 expression up to 10 uM after 24 hrs by Western blot analysis; type: functional, cell-based
HEY [3] = experiment: Induction of autophagy in human HEY cells assessed as increase in LC3-2 expression up to 10 uM after 24 hrs by Western blot analysis; type: functional, cell-based
A2780 [4] = experiment: Induction of autophagy in human A2780 cells expressing mRFP-GFP-LC3 plasmid assessed as increase in LC3 punctum formation at 10 uM after 24 hrs by confocal microscopic analysis; type: functional, cell-based
[5] = molecular target: T1, c-Jun N-terminal kinase, JNK (Homo sapiens) (UniProt P45983+P53779+P45984); experiment: Activation of JNK phosphorylation in human A2780 cells up to 10 uM after 24 hrs by Western blot analysis; type: cell-based
[6] = molecular target: T1, c-Jun N-terminal kinase, JNK (Homo sapiens); experiment: Activation of JNK in human A2780 cells assessed as increase in c-jun expression up to 10 uM after 24 hrs by Western blot analysis; type: cell-based
[7] = molecular target: T1, c-Jun N-terminal kinase, JNK (Homo sapiens); experiment: Activation of JNK in human A2780 cells assessed as increase in phosphorylated c-jun expression up to 10 uM after 24 hrs in presence of JNK/c-Jun pathway inhibitor SP600125 by Western blot analysis; type: cell-based
[8] = molecular target: T1, c-Jun N-terminal kinase, JNK (Homo sapiens); experiment: Activation of JNK in human A2780 cells assessed as increase in phosphorylated c-jun expression up to 10 uM after 24 hrs by Western blot analysis; type: cell-based
[9] = molecular target: T1, c-Jun N-terminal kinase, JNK (Homo sapiens); experiment: Activation of JNK phosphorylation in human A2780 cells up to 10 uM after 24 hrs in presence of JNK/c-Jun pathway inhibitor SP600125 by Western blot analysis; type: cell-based
A2780 [10] = experiment: Induction of autophagy in human A2780 cells assessed as increase in LC3-2 expression in presence of JNK/c-Jun pathway inhibitor SP600125 by Western blot analysis; type: functional, cell-based
A2780 [11] = experiment: Induction of autophagy in human A2780 cells assessed as increase in LC3-2 expression by Western blot analysis; type: functional, cell-based
HEY [12] = experiment: Induction of autophagy in human HEY cells assessed as increase in LC3-2 expression by Western blot analysis; type: functional, cell-based
A2780 [13] = experiment: cells; settings: Homo sapiens, A2780, 48 h
Description: (§1) Cytotoxicity against human A2780 cells after 48 hrs by MTT assay

A2780 [14] = settings: Homo sapiens
Description: as §1

A2780 [15] = experiment: Cytotoxicity against human A2780 cells up to 10 uM after 48 hrs by MTT assay; type: functional, cell-based
HEY [16] = experiment: Cytotoxicity against human HEY cells up to 10 uM after 48 hrs by MTT assay; type: functional, cell-based

Row | SMILES | Activity (HEY [1]) | Activity (A2780 [14]) | Activity (A2780 [15]) | Activity (HEY [16]) | other results
1 | CCc1oc(=O)cc2c1C[C@H]1OC(=O)[C@@]3(C)C[C@@H](O)[C@@H](O)[C@@]2(C)[C@@H]13 |  |  |  |  | pIC50 (HEY [1]): > 5.60; Activity (A2780 [2]): Active; Activity (HEY [3]): Active; Activity (A2780 [4]): Active; Activity [5]: Active; Activity [6]: Active; Activity [7]: inactive; Activity [8]: Active; Activity [9]: inactive; Activity (A2780 [10]): inactive; Activity (A2780 [11]): Active; Activity (HEY [12]): Active; pIC50 (A2780 [13]): > 5.60
2 | CCc1oc(=O)cc2c1C[C@H]1OC(=O)[C@@]3(C)[C@H](O)[C@H]4O[C@H]4[C@@]2(C)[C@@H]13 | Active | Active |  |  | Activity (A2780 [11]): Active; Activity (HEY [12]): Active
3 | CC(C)c1oc(=O)cc2c1[C@@H](O)[C@H]1OC(=O)[C@@]3(C)CC[C@@H](O)[C@@]2(C)[C@@H]13 | Active | Active |  |  | 
4 | CC(C)c1oc(=O)cc2c1[C@@H](O)[C@H]1OC(=O)[C@@]3(C)[C@@H](O)[C@H]4O[C@H]4[C@@]2(C)[C@@H]13 | Active | Active |  |  | 
5 | CCc1oc(=O)cc2c1C[C@H]1OC(=O)[C@@]3(C)[C@@H](O)[C@@H](O)[C@H](O)[C@@]2(C)[C@@H]13 |  |  | inactive | inactive | 
6 | CC(O)c1oc(=O)cc2c1C[C@H]1OC(=O)[C@@]3(C)CC[C@@H](O)[C@@]2(C)[C@@H]13 (some centres not stated) |  |  | inactive | inactive | 
7 | CC(O)c1oc(=O)cc2c1C[C@H]1OC(=O)[C@@]3(C)[C@@H](O)[C@@H](O)[C@H](Cl)[C@@]2(C)[C@@H]13 (some centres not stated) |  |  | inactive | inactive | 
8 | CC(C)c1oc(=O)cc2c1[C@@H](O)[C@H]1OC(=O)[C@@]3(C)C[C@@H](O)[C@@H](O)[C@@]2(C)[C@@H]13 | Active | Active |  |  | 
9 | CC(=O)O[C@H]1C(=O)[C@@]2(C)[C@H]([C@H](OC(=O)c3ccccc3)[C@]3(O)C[C@H](OC(=O)[C@H](O)[C@@H](NC(=O)c4ccccc4)c4ccccc4)C(C)=C1C3(C)C)[C@]1(OC(C)=O)CO[C@@H]1C[C@@H]2O [PACLITAXEL] |  |  |  |  | pIC50 (HEY [1]): 6.98; pIC50 (A2780 [13]): 6.78
10 | CC(C)c1oc(=O)cc2c1[C@@H](O)[C@H]1OC(=O)[C@@]3(C)CC(=O)[C@@H](O)[C@@]2(C)[C@@H]13 |  |  | inactive | inactive | 
11 | CC(C)c1oc(=O)cc2c1[C@@H](O)[C@H]1OC(=O)[C@@]3(C)C[C@@H](O)C[C@@]2(C)[C@@H]13 | Active | Active |  |  | 
12 | CCc1oc(=O)cc2c1C[C@H]1OC(=O)[C@@]3(C)[C@@H](O)C[C@@H](O)[C@@]2(C)[C@@H]13 |  |  | inactive | inactive | 
13 | CCc1oc(=O)cc2c1C[C@H]1OC(=O)[C@@]3(C)CC[C@@H](O)[C@@]2(C)[C@@H]13 |  |  |  |  | pIC50 (HEY [1]): 5.19; pIC50 (A2780 [13]): 5.42
14 | CCc1oc(=O)cc2c1C[C@H]1OC(=O)[C@@]3(C)[C@@H](O)[C@H]4O[C@H]4[C@@]2(C)[C@@H]13 | Active | Active |  |  | 
15 | CCc1oc(=O)cc2c1[C@@H](O)[C@H]1OC(=O)[C@@]3(C)[C@@H](O)[C@H]4O[C@H]4[C@@]2(C)[C@@H]13 |  |  | inactive | inactive | 
16 | CC(O)c1oc(=O)cc2c1C[C@H]1OC(=O)[C@@]3(C)[C@H](O)[C@H]4O[C@H]4[C@@]2(C)[C@@H]13 (some centres not stated) |  |  | inactive | inactive | 
17 | CC(C)[C@H]1OC(=O)C=C2[C@@]13O[C@@H]3[C@H]1OC(=O)[C@@]3(C)CCC[C@@]2(C)[C@@H]13 | Active | Active |  |  | 
